Data reported in paper PMC11191095, “QSAR Reveals Decreased Lipophilicity of Polar Residues Determines the Selectivity of Antimicrobial Peptide Activity” (ACS Omega, 2024).
Where a SMILES comes first, the peptide text is derived from it.

Tested on: human erythrocytes
Test: In vitro hemolytic activity
Format: cell-based
Conditions: 1 h
Summary of the method: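 Serial peptide dilutions in PBS mixed 1:1 with fresh erythrocytes, 1 h at 37 °C; supernatant OD550 measured after centrifugation. Hemolysis normalized to 0.1% Triton X-100 (full lysis) and PBS (none); HC10 and HC50 taken from dose–response curves.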

[1] = human erythrocytes in PBS, 37 °C, OD550, from dose response curves

CC(C)[C@H](NC(=O)CNC(=O)[C@H](CCCNC(=N)N)NC(=O)[C@H](CCCNC(=N)N)NC(=O)[C@H](CS)NC(=O)[C@@H](NC(=O)[C@H](CS)NC(=O)[C@@H](N)CCCNC(=N)N)C(C)C)C(=O)N[C@@H](CS)C(=O)N[C@@H](CCCNC(=N)N)C(=O)N[C@@H](CS)C(=O)N[C@H](C(=O)N[C@@H](CS)C(=O)N[C@@H](CCCNC(=N)N)C(=O)N[C@@H](CCCNC(=N)N)C(N)=O)C(C)C [BTD15a] (H-RCVCRRGVCRCVCRR-NH2; N-terminus assumed)
HC10 (concentration causing 10% hemolysis) [1]: 9 µg/mL
HC50 (concentration causing 50% hemolysis) [1]: 33 µg/mL
% hemolysis (red cells of human, 256 μg/mL): 100%
